{
  "source": "patent US20220233684A1",
  "about": "“COMBINATION OF HEPATITIS B VIRUS (HBV) VACCINES AND PD-L1 INHIBITORS” (Janssen Sciences Ireland Unlimited Company, priority 2019, published 2022)",
  "data": [
    {"molecular_target": "PD-1/PD-L1 (Homo sapiens, UniProt Q9NZQ7)", "sequence (Q9NZQ7 19-238 limits assumed)": "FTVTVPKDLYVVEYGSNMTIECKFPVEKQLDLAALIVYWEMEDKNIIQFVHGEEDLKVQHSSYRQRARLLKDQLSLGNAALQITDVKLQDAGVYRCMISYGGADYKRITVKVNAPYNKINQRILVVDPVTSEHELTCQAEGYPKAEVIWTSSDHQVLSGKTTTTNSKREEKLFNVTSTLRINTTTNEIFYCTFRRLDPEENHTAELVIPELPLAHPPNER", "test": "PD-1/PD-L1 biochemical protein-protein interaction assay (ALPHA)", "assay_type": "binding", "details": "5 nM His tagged PD-L1, 5 nM biotinylated PD-1, 2 hours at 25° C.; read-out: ALPHA-LISA IC50", "method": "Compounds were tested in protein-protein interaction assay to determine if they can specifically block the interaction between the extracellular domains of PD-1/PD-L1. Binding of the protein pairs is measured using a bead based amplified luminescent proximity homogeneous assay (ALPHA) platform. Binding of each protein pair results in proximity of the donor and acceptor beads which leads to an increase in ALPHA signal. Assays are performed in 50 mM Tris (pH 7.4), 0.0015% Triton X-100, 0.1% BSA. Final protein concentration in the assays were 5 nM (His tagged PD-L1), 5 nM (biotinylated PD-1), 10 μg/ml ALPHA assay acceptor beads, 10 μg/ml ALPHA assay donor beads. After an assay reaction time of 2 hours at 25° C., binding was measured. The specificity of the binding was determined by testing the compounds in an assay with an irrelevant protein that is both His tagged and biotinylated. The final protein concentration used in the assay was 5 nM, 10 μg/ml ALPHA assay acceptor beads, 10 μg/ml ALPHA assay donor beads. After an assay reaction time of 2 hours at 25° C., binding was measured. IC50 values were calculated from the fit of the dose-response curves to a four-parameter equation.\nThe specificity of the binding was determined by testing the compounds in an assay with an irrelevant protein that is both His tagged and biotinylated (ErbB3/her3). The final protein concentration used in the assay was 5 nM, 10 μg/mL ALPHA assay acceptor beads, 10 μg/mL ALPHA assay donor beads. After an assay reaction time of 2 hours at 25° C., binding was measured. IC50 values were calculated from the fit of the dose-response curves to a four-parameter equation.", "units": {"IC50": "nM"}, "values": [
      {"smiles": "Cc1cc(CN[C@H](CO)C(=O)O)c(OCc2cccc(C#N)c2)cc1OCc1cccn(-c2ccc3c(c2)OCCO3)c1=O", "note": "[Compound 7, (2-((3-cyanobenzyl)oxy)-4-((1-(2,3-dihydrobenzo[b][1,4]dioxin-6-yl)-2-oxo-1,2-dihydropyridin-3-yl)methoxy)-5-methylbenzyl)-D-serine]", "IC50": 1100},
      {"smiles": "Cc1cc(CN2C[C@H](O)C[C@@H]2C(=O)O)c(OCc2cccc(C#N)c2)cc1OCc1cccn(-c2ccc3c(c2)OCCO3)c1=O", "note": "[Compound 8, (2R,4R)-1-(2-((3-cyanobenzyl)oxy)-4-((1-(2,3-dihydrobenzo[b][1,4]dioxin-6-yl)-2-oxo-1,2-dihydropyridin-3-yl)methoxy)-5-methylbenzyl)-4-hydroxypyrrolidine-2-carboxylic acid]", "IC50": 3400},
      {"smiles": "Cc1cc(CN[C@](C)(CO)C(=O)O)c(OCc2cccc(C#N)c2)cc1OCc1cccn(-c2ccc3c(c2)OCCO3)c1=O", "note": "[Compound 9, (R)-2-((2-((3-cyanobenzyl)oxy)-4-((1-(2,3-dihydrobenzo[b][1,4]dioxin-6-yl)-2-oxo-1,2-dihydropyridin-3-yl)methoxy)-5-methylbenzyl)amino)-3-hydroxy-2-methylpropanoic acid]", "IC50": 1200},
      {"smiles": "Cc1cc(CN[C@@H](CO)C(=O)O)c(OCc2cccc(C#N)c2)cc1OCc1cccn(-c2ccc3c(c2)OCCO3)c1=O", "note": "[Compound 10, (2-((3-cyanobenzyl)oxy)-4-((1-(2,3-dihydrobenzo[b][1,4]dioxin-6-yl)-2-oxo-1,2-dihydropyridin-3-yl)methoxy)-5-methylbenzyl)-L-serine]", "IC50": 1200},
      {"smiles": "Cc1cc(CN[C@@H](C)C(=O)O)c(OCc2cccc(C#N)c2)cc1OCc1cccn(-c2ccc3c(c2)OCCO3)c1=O", "note": "[Compound 11]", "IC50": 3900},
      {"smiles": "Cc1cc(CN(C)[C@@H](CO)C(=O)O)c(OCc2cccc(C#N)c2)cc1OCc1cccn(-c2ccc3c(c2)OCCO3)c1=O", "note": "[Compound 12]", "IC50": 1600},
      {"smiles": "Cc1cc(CN[C@H](CO)C(=O)O)c(OCc2cccc(Cl)c2)cc1OCc1cccn(-c2ccc3c(c2)OCCO3)c1=O", "note": "[Compound 101, (2-((3-chlorobenzyl)oxy)-4-((1-(2,3-dihydrobenzo[b][1,4]dioxin-6-yl)-2-oxo-1,2-dihydropyridin-3-yl)methoxy)-5-methylbenzyl)-D-serine]", "IC50": 3000},
      {"smiles": "Cc1cc(CN[C@H](CO)C(=O)O)c(OCc2cccnc2)cc1OCc1cccn(-c2ccc3c(c2)OCCO3)c1=O", "note": "[Compound 103, (4-((1-(2,3-dihydrobenzo[b][1,4]dioxin-6-yl)-2-oxo-1,2-dihydropyridin-3-yl)methoxy)-5-methyl-2-(pyridin-3-ylmethoxy)benzyl)-D-serine]", "IC50": 1000},
      {"smiles": "N#Cc1cccc(COc2cc(OCc3cccn(-c4ccc5c(c4)OCCO5)c3=O)c(Cl)cc2CN[C@H](CO)C(=O)O)c1", "note": "[Compound 202, (5-chloro-2-((3-cyanobenzyl)oxy)-4-((1-(2,3-dihydrobenzo[b][1,4]dioxin-6-yl)-2-oxo-1,2-dihydropyridin-3-yl)methoxy)benzyl)-D-serine]", "IC50": 300},
      {"smiles": "CCc1cc(CN[C@H](CO)C(=O)O)c(OCc2cccc(C#N)c2)cc1OCc1cccn(-c2ccc3c(c2)OCCO3)c1=O", "note": "[Compound 203]", "IC50": 2700},
      {"smiles": "CC(C)c1cc(CN[C@H](CO)C(=O)O)c(OCc2cccc(C#N)c2)cc1OCc1cccn(-c2ccc3c(c2)OCCO3)c1=O", "note": "[Compound 204]", "IC50": 3600},
      {"smiles": "N#Cc1cccc(COc2cc(OCc3cccn(-c4ccc5c(c4)OCCO5)c3=O)c(Cl)cc2CNC[C@@H]2CCC(=O)N2)c1", "note": "[Compound 205, (S)-3-((4-chloro-5-((1-(2,3-dihydrobenzo[b][1,4]dioxin-6-yl)-2-oxo-1,2-dihydropyridin-3-yl)methoxy)-2-((((5-oxopyrrolidin-2-yl)methyl)amino)methyl)phenoxy)methyl)benzonitrile]", "IC50": 360},
      {"smiles": "N#Cc1cncc(COc2cc(OCc3cccn(-c4ccc5c(c4)OCCO5)c3=O)c(Cl)cc2CN[C@H](CO)C(=O)O)c1", "note": "[Compound 207, (5-chloro-2-((5-cyanopyridin-3-yl)methoxy)-4-((1-(2,3-dihydrobenzo[b][1,4]dioxin-6-yl)-2-oxo-1,2-dihydropyridin-3-yl)methoxy)benzyl)-D-serine]", "IC50": 320},
      {"smiles": "O=C(O)[C@@H](CO)NCc1cc(Cl)c(OCc2cccn(-c3ccc4c(c3)OCCO4)c2=O)cc1OCc1cncc(-n2ccnn2)c1", "note": "[Compound 209]", "IC50": 550}
    ]}
  ]
}
